Data: patent publication US20050032124A1, “Identification of genotype-selective agents for treating Huntington's disease” (priority 2003, published 2005)

Assays:
Format in all cases: cell-based, human
BJ primary cells [1] = assay: Calcein AM viability assay, dilution-series retest; details: BJ cells; 16-point two-fold dilution; two days
Description: (§1) Described here is work carried out to identify compounds with increased potency or activity in the presence of hTERT, LT, ST, E6, E7 or RAS^V12. Engineered cell lines with these genetic elements were used to screen […] compounds, including 20,000 compounds from a combinatorial library, 1,990 compounds from the National Cancer Institute diversity collection, and 1,540 biologically active known compounds that were selected and purchased by Applicant and formatted into a screenable collection. The primary screen tested (in quadruplicate) the effect of treating tumorigenic BJ-TERT/LT/ST/RAS^V12 engineered tumorigenic cells with each compound for 48 hours at a concentration of 4 μg/mL, corresponding to 10 μM for a compound with a molecular weight of 400, which is the approximate median molecular weight of the libraries. Cell viability was measured using the dye calcein acetoxymethyl ester (calcein AM) (Wang et al., 1993, Hum. Immunol. 3 7, 264-270), which is a non-fluorescent compound that freely diffuses into cells. In live cells, calcein AM is cleaved by intracellular esterases, forming the anionic fluorescent derivative calcein, which cannot diffuse out of live cells. […] The IC50 value (concentration required to inhibit 50% of the calcein AM signal) was calculated for each compound in each cell line (Table 1). […] Following is a more detailed analysis of these nine compounds.
(§2) Calcein acetoxylmethyl ester (AM) is a cell membrane-permeable, non-fluorescent compound that is cleaved by intracellular esterases to form the anionic, cell-impermeable, fluorescent compound calcein. Viable cells are stained by calcein because of the presence of intracellular esterases and because the intact plasma membrane prevents fluorescent calcein from leaking out of cells (Wang et al., 1993, supra). Cells were seeded in 384-well plates using a Zymark Sciclone ALH, treated with each compound in triplicate at 4 μg/mL in the primary screen for two days, washed with phosphate-buffered saline on a Packard Minitrak with a 384-well washer and incubated for four hours with 0.7 μg/mL calcein (Molecular Probes). Total fluorescence intensity in each well was recorded on a Packard Fusion platereader, and converted to a percent inhibition of signal by subtracting the instrument background and dividing by the average signal obtained when cells were not treated with any compound.
(§3) Replica daughter plates were prepared with a Zymark Sciclone ALH and integrated Twister II by diluting stock plates 50 fold in medium lacking serum and pen/strep to obtain a compound concentration in daughter plates of 80 μg/ml with 2% DMSO. Assay plates were prepared by seeding cells in black, clear bottom 384-well plates in columns 1-23 (6000 cells/well in 57 μl) using a syringe bulk dispenser. Columns 3-22 were treated with compounds from a daughter library plate by transferring 3 μl from the daughter library plate using 384-position fixed cannula array. The final compound concentrations in assay plates were thus 4 μg/ml. The assay plates were incubated for 48 hours at 37° C. in humidified incubator containing 5% CO2. Plate processing for the calcein AM viability assay was performed using an integrated Minitrak/Sidetrak robotic system from Packard Bioscience (Perkin Elmer). Assay plates were washed with phosphate buffered saline, and 20 μl of calcein AM (0.7 μg/ml) per well was added. Plates were incubated at room temperature for 4 hours. Fluorescence intensity was determined using a Fusion platereader with filters centered on an excitation of 485 nm and an emission of 535 nm.
(§4) Compounds to be retested were purchased from manufacturers. Stocks were prepared in DMSO at a concentration of 1 mg/ml in 384-well polypropylene plates with a 16-point, two-fold dilution dose curve of each compound in a column, in duplicates. Column 1-2 and 23-24 were left empty for controls. […]

[2] = system: BJ-TERT/LT/RAS^V12/ST cells; assay: Calcein AM viability assay, dilution-series retest; details: BJ-TERT/LT/Ras^V12/ST cells; 16-point two-fold dilution; two days
Description: as §1, §2, §3, §4

BJ-TERT/LT/ST cells = assay: Calcein AM viability assay, dilution-series retest; details: BJ-TERT/LT/ST cells; 16-point two-fold dilution; two days
Description: as §1, §2, §3, §4

[3] = system: BJ-TERT/LT/ST/RAS^V12 tumorigenic cells; assay: Calcein AM viability assay, dilution-series retest
Method: Described here is work carried out to identify compounds with increased potency or activity in the presence of hTERT, LT, ST, E6, E7 or RAS^V12. […] The primary screen tested (in quadruplicate) the effect of treating tumorigenic BJ-TERT/LT/ST/RAS^V12 engineered tumorigenic cells with each compound for 48 hours at a concentration of 4 μg/mL, corresponding to 10 μM for a compound with a molecular weight of 400, which is the approximate median molecular weight of the libraries. Cell viability was measured using the dye calcein acetoxymethyl ester (calcein AM) (Wang et al., 1993, Hum. Immunol. 3 7, 264-270), which is a non-fluorescent compound that freely diffuses into cells. In live cells, calcein AM is cleaved by intracellular esterases, forming the anionic fluorescent derivative calcein, which cannot diffuse out of live cells. […] The IC50 value (concentration required to inhibit 50% of the calcein AM signal) was calculated for each compound in each cell line (Table 1).
as §2, §3
(§5) Compounds to be retested were purchased from manufacturers. Stocks were prepared in DMSO at a concentration of 1 mg/ml in 384-well polypropylene plates with a 16-point, two-fold dilution dose curve of each compound in a column, in duplicates. Column 1-2 and 23-24 were left empty for controls. Daughter retest plates were prepared from stock retest plate by diluting 66.6 fold in DMEM in 384-well deep-deep well plates (4.5 μl transfer into 300 μl). Cells were seeded at a density of 6000 per well in 40 μl, and 20 μl was added from a daughter retest plate. The plates were incubated for two days at 37° C. with 5% CO2.

TIP5/TERT cells = assay: Calcein AM viability assay, dilution-series retest; details: TIP5-TERT cells; 16-point two-fold dilution; two days
Description: (§6) In a third series, cell lines derived from independently prepared human TIP5 foreskin fibroblasts created by introducing cDNA constructs encoding hTERT, LT, ST and RASV12 (Lessnick et al., 2002, Cancer Cell 1, 393-401) were used. These cell lines were called, respectively: TIP5/TERT, TIP5/TERT/LT, TIP5/TERT/LT/ST, and TIP5/TERT/LT/ST/RAS^V12. In a fourth series, cell lines derived from TIP5 fibroblasts created by introducing cDNA constructs encoding hTERT, E6, E7, ST and RAS^V12 were used. These cell lines were named, respectively: TIP5/TERT/E6, TIP5/TERT/E6/E7, TIP5/TERT/E6/E7/ST, and TIP5/TERT/E6/E7/ST/RAS^V12. In this series, HPV E6 and E7, which inactivate p53 and RB, respectively, serve a similar function as LT in the previous series. However, by using HPV E6 and E7, Applicants were able to observe the effects of inactivating, separately and independently, p53 and RB. Results of a large-scale screen for compounds that display selective killing of these engineered tumorigenic cell lines are described in the examples that follow.
as §2, §3, §5
(§7) Mean RFU (relative fluorescence units) for untreated cells was calculated by averaging columns 1, 2, and 23 (wells with cells but lacking compounds). […]

TIP5/TERT/E6/E7 cells = assay: Calcein AM viability assay, dilution-series retest; details: TIP5-TERT/E6E7 cells; 16-point two-fold dilution; two days
Description: as §6, §2, §3, §5, §7

TIP5/TERT/E6/E7/ST cells = assay: Calcein AM viability assay, dilution-series retest; details: TIP5-TERT/E6E7/ST cells; 16-point two-fold dilution; two days
Description: as §6, §2, §3, §5, §7

[4] = system: TIP5/TERT/E6/E7/ST/RAS^V12 cells; assay: Calcein AM viability assay, dilution-series retest; details: TIP5-TERT/E6E7/ST/Ras^V12 cells; 16-point two-fold dilution; two days
Description: as §6, §2, §3, §5, §7

TIP5/TERT/LT cells = assay: Calcein AM viability assay, dilution-series retest; details: TIP5 TERT/LT cells; 16-point two-fold dilution; two days
Description: as §6, §2, §3, §5, §7

[5] = system: TIP5/TERT/LT/ST/RAS^V12 cells; assay: Calcein AM viability assay, dilution-series retest; details: TIP5 TERT/LT/ST/Ras^V12 cells; 16-point two-fold dilution; two days
Description: as §6, §2, §3, §5, §7

BJ primary cells [6] = assay: Sensitization of primary cells by co-treatment, calcein AM viability staining; details: BJ (or BJ-TERT) cells; simultaneous treatment
Description: (A-C) Western blot of lysates from BJ, BJ-TERT, BJ-TERT/LT/ST, BJ-TERT/LT/ST/RAS^V12, BJ-TERT/LT/RAS^V12 and BJ-TERT/LT/RAS^V12/ST cells with an antibody directed against topoisomerase II (A) or TOPI (B, C). In panel (C), cells were transfected with an siRNA directed against TOPI, lamic A/C or with a control double strand DNA duplex of the same length (TOPI dsDNA). In each case, the blot was probed with an antibody against eIF-4E to identify differences in the amount of protein loaded. The relative amount is quantitated below each band. […] Cell number was determined after transfection with an siRNA directed against TOPI and treatment with the indicated concentrations of camptothecin. (E) Okadaic acid, an inhibitor of PP2A and other cellular phosphatases, sensitizes primary human cells to camptothecin. BJ primary cells were treated simultaneously with the indicated concentrations of both camptothecin and okadaic acid and the effect on calcein AM viability staining was determined. […] BJ primary cells were treated with the indicated concentrations of okadaic acid and the expression level of TOPI was determined by western blot. The relative amount is quantitated below each band.
The compounds in group (iii) are camptothecin (CPT) and a novel compound from a combinatorial library, which Applicants have named erastin, for eradicator of RAS and ST-expressing cells (FIG. 2). Efficient CPT-induced and erastin-induced cell death requires the presence of both ST and RAS^V12 (FIGS. 3 and 4 and Table 1). Although CPT and erastin have a similar genetic basis of selectivity, they have distinct mechanisms of action. […] The phosphatase inhibitor okadaic acid was capable of sensitizing otherwise resistant BJ primary cells to CPT (FIG. 5E), possibly because okadaic acid upregulates TOPI (FIG. 5F).

Compound | concentration required to achieve 50% inhibition of calcein AM staining (IC50), BJ (BJ primary cells [1]) [µg/mL] | IC50, BJ-TERT/LT/Ras^V12/ST [2] [µg/mL] | IC50, BJ-TERT/LT/ST (BJ-TERT/LT/ST cells) [µg/mL] | IC50, BJ-TERT/LT/ST/Ras^V12 ([3]; BJ-TERT/LT/ST/Ras^V12 cells, 16-point two-fold dilution, two days) [µg/mL] | Tumor Selectivity ([3]; IC50 in primary BJ cells divided by IC50 in BJ-TERT/LT/ST/RAS^V12 tumorigenic cells) | IC50, TIP5-TERT (TIP5/TERT cells) [µg/mL] | IC50, TIP5-TERT/E6E7 (TIP5/TERT/E6/E7 cells) [µg/mL] | IC50, TIP5-TERT/E6E7 ST (TIP5/TERT/E6/E7/ST cells) [µg/mL] | IC50, TIP5-TERT/E6E7 ST/Ras^V12 [4] [µg/mL] | IC50, TIP5 TERT/LT (TIP5/TERT/LT cells) [µg/mL] | IC50, TIP5 TERT/LT/ST/Ras^V12 [5] [µg/mL] | sensitization of cells to camptothecin (BJ primary cells [6])
Cc1c2ccccc2c(CSC(=N)N)c2ccccc12.Cl [NSC146109] | >5 | 2.5 | 2.5 | 2.5 | >4 | >5 | 2.5 | 2.5 | 2.5 | >5 | 2.5 | 
COc1cc([C@@H]2c3cc4c(cc3[C@H](O)[C@H]3COC(=O)[C@H]23)OCO4)cc(OC)c1OC [podophyllotoxin] |  |  |  |  |  |  |  |  |  |  |  | does not sensitize BJ or BJ-TERT cells to CPT
